The values that follow come from patent US7776847B2, “Benzisothiazoles useful for treating or preventing HCV infection” (priority 2005, dated 2010).

Structures are written as SMILES. pIC50: −log10 of the molar value. A value given as a limit tells only on which side of the number the result lay.

The test system of this experiment is HCV replicon. Description: HCV replicon luciferase reporter assay. Type of experiment: cell-based. Particulars: Hepatitis C virus, Table 5; read-out: IC50. Put shortly: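 IC50 is the compound amount halving luciferase signal, measured after 24–48 h treatment at various concentrations. Cells carrying the HCV replicon were pre-incubated 24 h at 37° C, 5% CO2 after seeding at about 5,000–7,500 cells/well before dosing.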
For orientation: Replicon systems follow genome replication, usually without infectious particles.
The pIC50 is −log10 of the IC50, conventionally taken in molar units. As for `COc1ccc(Cl)cc1-c1cccc(CNCCCNc2nsc3ccccc23)c1` [Compound 302, N^1-(benzo[d]isothiazol-3-yl)-N^3-((3′-chloro-6′-methoxybiphenyl-3-yl)methyl)propane-1,3-diamine], the pIC50 is > 5.30.
As for `CC(C)(C)OC(=O)N1CCCC(C(=O)NCCNc2nsc3ccc(Cl)cc23)C1` (centres unmarked) [Compound 424, tert-butyl 3-(2-(5-chlorobenzo[d]isothiazol-3-ylamino)ethylcarbamoyl)piperidine-1-carboxylate], the figure is > 5.30.
In the case of `Cc1cccc(C(=O)NCCNc2nsc3ccccc23)n1` [Entry 13, N-(2-(Benzo[d]isothiazol-3-ylamino)ethyl)-6-methylpicolinamide] it was < 5.30; in that of `COc1ccc(-c2ccc(C(=O)NCCNc3nsc4ccccc34)cc2)cc1` [Compound 360, N-(2-(benzo[d]isothiazol-3-ylamino)ethyl)-4′-methoxybiphenyl-4-carboxamide], > 5.30; in that of `CCOc1cc(OCC)cc(C(=O)NCCCNc2nsc3ccccc23)c1` [Compound 391, N-(3-(benzo[d]isothiazol-3-ylamino)propyl)-3,5-diethoxybenzamide], > 5.30.
In the case of `Cc1cccc(NCCCNc2nsc3ccccc23)n1` [Compound 281, N^1-(benzo[d]isothiazol-3-yl)-N^3-(6-methylpyridin-2-yl)propane-1,3-diamine] it was > 5.30; in that of `FC(F)(F)c1ccnc(NCCCNc2nsc3ccccc23)c1` [Entry 231, N^1-(benzo[d]isothiazol-3-yl)-N^3-(4-(trifluoromethyl)pyridin-2-yl)propane-1,3-diamine], > 5.30; in that of `O=S(=O)(NCCCNc1nsc2ccccc12)c1cccc(OC(F)(F)F)c1` [Compound 266, N-(3-(benzo[d]isothiazol-3-ylamino)propyl)-3-(trifluoromethoxy)benzenesulfonamide], > 5.30.
Consider `O=C(NCCCNc1nsc2ccccc12)c1ccc(F)cc1` [Entry 234, N-(3-(benzo[d]isothiazol-3-ylamino)propyl)-4-fluorobenzamide], for which the negative-log IC50 (pIC50) was > 5.30.
In the case of `O=C(NCCCNc1nsc2ccccc12)c1cnc(O)c(Cl)c1` [Compound 452, N-(3-(benzo[d]isothiazol-3-ylamino)propyl)-5-chloro-6-hydroxynicotinamide] it was < 5.30; in that of `CCCCc1ccc(C(=O)NCCNc2nsc3ccc(Cl)cc23)cc1` [Compound 421, 4-butyl-N-(2-(5-chlorobenzo[d]isothiazol-3-ylamino)ethyl)benzamide], > 5.30; in that of `CCCCC(=O)Nc1ccc2oc(C(=O)NCCCNc3nsc4ccccc34)cc2c1` [Compound 453, N-(3-(benzo[d]isothiazol-3-ylamino)propyl)-5-pentanamidobenzofuran-2-carboxamide], > 5.30.
In the case of `CCCCNC(=O)c1cccc(C(=O)NCCNc2nsc3ccccc23)c1` [Compound 429, N^1-(2-(benzo[d]isothiazol-3-ylamino)ethyl)-N^3-butylisophthalamide], the pIC50 was > 5.30.
In the case of `Clc1ccc(NCCCNc2nsc3ccccc23)nc1` [Entry 226, N-(3-(5-chloropyridin-2-ylamino)propyl)benzo[d]isothiazol-3-amine] it was > 5.30; in that of `CC(C)(C)OC(=O)N[C@H](C(=O)NCCNc1nsc2ccccc12)c1ccccc1` [Entry 11, (S)-tert-Butyl 2-(2-(Benzo[d]isothiazol-3-ylamino)ethylamino)-2-oxo-1-phenylethylcarbamate], > 5.30.
As for `COc1ccc(-c2cccc(C(=O)NCCNc3nsc4ccccc34)c2)cc1OC` [Compound 370, N-(2-(benzo[d]isothiazol-3-ylamino)ethyl)-3′,4′-dimethoxybiphenyl-3-carboxamide], the pIC50 is > 5.30.
As for `COc1ccc(-c2ccc(CNCCCNc3nsc4ccccc34)cc2)cc1OC` [Compound 292, N^1-(benzo[d]isothiazol-3-yl)-N^3-((3′,4′-dimethoxybiphenyl-4-yl)methyl)propane-1,3-diamine], the figure is > 5.30; as for `COc1ccc(-c2ccc(CN(CCCNc3nsc4ccccc34)C(=O)N3CCOCC3)cc2)cc1` [Compound 314, N-(3-(benzo[d]isothiazol-3-ylamino)propyl)-N-((4′-methoxybiphenyl-4-yl)methyl)morpholine-4-carboxamide], > 5.30; as for `COc1ccc(-c2cccc(C(=O)NCCCNc3nsc4ccccc34)c2)cn1` [Compound 388, N-(3-(benzo[d]isothiazol-3-ylamino)propyl)-3-(6-methoxypyridin-3-yl)benzamide], > 5.30.
As to `O=S(=O)(c1ccccc1C(F)(F)F)N(CCCNc1nsc2ccccc12)Cc1ccccc1` [Compound 254, N-(3-(benzo[d]isothiazol-3-ylamino)propyl)-N-benzyl-2-(trifluoromethyl)benzenesulfonamide], the pIC50 was > 5.30.
